From patent US10947252B2, “Inhibitors of KEAP1-Nrf2 protein-protein interaction” (Janssen Pharmaceutica NV, priority 2018, dated 2021)

Tests used:
[1] = target: Kelch domain of human KEAP1 (321-624 aa) (Homo sapiens (Human), UniProt Q14145); assay: KEAP1 KELCH ThermoFluor binding assay; conditions: KEAP Kelch […], 1,8-ANS, pH 7.0, average of results obtained, read-out: Tf Kd;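 also: Ligand-induced melting temperature shift of E. coli-expressed KEAP1 Kelch protein, Kd estimated from concentration-response curves of ΔTm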
Chain of Kelch domain of human KEAP1 (321-624 aa) (Q14145 321-624): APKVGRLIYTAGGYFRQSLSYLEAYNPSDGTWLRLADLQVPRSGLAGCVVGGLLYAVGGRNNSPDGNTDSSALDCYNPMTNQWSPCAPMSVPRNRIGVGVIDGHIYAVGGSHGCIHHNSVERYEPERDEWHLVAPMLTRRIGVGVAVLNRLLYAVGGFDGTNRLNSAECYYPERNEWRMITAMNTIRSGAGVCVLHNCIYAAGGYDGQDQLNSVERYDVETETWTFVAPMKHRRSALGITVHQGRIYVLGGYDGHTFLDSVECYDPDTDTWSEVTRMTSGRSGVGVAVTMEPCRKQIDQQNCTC

[2] = system: Glo-Response ARE-luc2P HEK293 cell line; assay: ARE luciferase reporter cell-based assay; conditions: average of results obtained;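 also: luciferase signal tracks Nrf2 activation of the ARE once compounds disrupt KEAP1-Nrf2 binding, read with One-Glo reagent, DMSO serving as low control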

| Structure (SMILES) | Kd [1] [nM] | EC50 ([2]; Homo sapiens, HEK293, 24 h) [nM] | EC50 ([2]; 24 hours) [nM] |
| --- | --- | --- | --- |
| Cc1ccc([C@@H](CC(=O)O)c2ccc3c(nnn3CC3CC3)c2C)cc1CN1CC2(COC2)Oc2ccccc2S1(=O)=O (single isomer, unassigned) [Example 76, (*R)-3-(1-(cyclopropylmethyl)-4-methyl-1H-benzo[d][1,2,3]triazol-5-yl)-3-(3-((1′,1′-dioxidospiro[benzo[b][1,4,5]oxathiazepin-4,3′-oxetan]-2,(3H)-yl)methyl)-4-methylphenyl)propanoic Acid] | 4.8 | 136 |  |
| Cc1cnc([C@@H](c2ccn3c(C(F)(F)F)nnc3c2C)C(C)(C)C(=O)O)cc1CN1CC2(CC2)Oc2nc(OCCN3CCCCC3)c(C)cc2S1(=O)=O (single isomer, unassigned) [Example 592, (*S)-2,2-Dimethyl-3-(8-methyl-3-(trifluoromethyl)-[1,2,4]triazolo[4,3-a]pyridin-7-yl)-3-(5-methyl-4-((8′-methyl-1′,1′-dioxido-7′-(2-(piperidin-1-yl)ethoxy)spiro[cyclopropane-1,4′-pyrido[2,3-b][1,4,5]oxathiazepin]-2′(3′H)-yl)methyl)pyridin-2-yl)propanoic Acid] | < 1 | 17.6 |  |
| Cc1ccc(C(CC(=O)O)c2ccn3c(C(F)F)nnc3c2C)cc1CN1CC2(CC2)Oc2ncc(Cl)cc2S1(=O)=O (stereo not drawn) [Example 529, 3-(3-((8′-Chloro-1′,1′-dioxidospiro[cyclopropane-1,4′-pyrido[2,3-b][1,4,5]oxathiazepin]-2′(3′H)-yl)methyl)-4-methylphenyl)-3-(3-(difluoromethyl)-8-methyl-[1,2,4]triazolo[4,3-a]pyridin-7-yl)propanoic Acid] | < 1 | 29.1 |  |
| Cc1ccc([C@H](CC(=O)O)c2ccn3c(C(F)(F)F)nnc3c2C)cc1CN1C[C@@H]2CCCCN2c2ncccc2S1(=O)=O (single isomer, unassigned) [Example 290, (*S)-3-(3-(((*S)-5,5-Dioxido-7,7a,8,9,10,11-hexahydro-6H-dipyrido[2,1-d:2′,3′-f][1,2,5]thiadiazepin-6-yl)methyl)-4-methylphenyl)-3-(8-methyl-3-(trifluoromethyl)-[1,2,4]triazolo[4,3-a]pyridin-7-yl)propanoic Acid] | < 1 | 8.8 |  |
| Cc1ccc([C@@H](CC(=O)O)c2ccn3c(C(F)F)nnc3c2C)cc1CN1CC2(CC2)Oc2ncc(C(N)=O)cc2S1(=O)=O (single isomer, unassigned) [Example 553, (*R)-3-(3-((8′-Carbamoyl-1′,1′-dioxidospiro[cyclopropane-1,4′-pyrido[2,3-b][1,4,5]oxathiazepin]-2′(3′H)-yl)methyl)-4-methylphenyl)-3-(3-(difluoromethyl)-8-methyl-[1,2,4]triazolo[4,3-a]pyridin-7-yl)propanoic Acid] | 769 | > 20000 |  |
| Cc1ccc([C@H](c2ccn3c(C(F)(F)F)nnc3c2C)C(C)(C)C(=O)O)cc1CN1CC2(CCOCC2)Oc2nc(OCCCO)ccc2S1(=O)=O (single isomer, unassigned) [Example 51, (*R) 3-(3-((7′-(3-Hydroxypropoxy)-1′,1′-dioxido-2,3,5,6-tetrahydrospiro[pyran-4,4′-pyrido[2,3-b][1,4,5]oxathiazepin]-2′(3′H)-yl)methyl)-4-methylphenyl-2,2′-dimethyl-3-(8-methyl-3-trifluoromethyl)-[1,2,4]triazolo[4,3-a]pyridine-7-yl)propanoic Acid] | 0.97 | 646 |  |
| Cc1ccc(C(CC(=O)O)c2ccc3c(nnn3CC3CC3)c2C)cc1CN1C[C@@H]2CCCCN2c2ncccc2S1(=O)=O (mixture of isomers) [Example 231, (R/S)-3-(1-(Cyclopropylmethyl)-4-methyl-1H-benzo[d][1,2,3]triazol-5-yl)-3-(3-(((*S)-5,5-dioxido-7,7a,8,9,10,11-hexahydro-6H-dipyrido[2,1-d:2′,3′-f][1,2,5]thiadiazepin-6-yl)methyl)-4-methylphenyl)propanoic Acid] | < 1 | 7 |  |
| Cc1cnc2c(c1)S(=O)(=O)N(Cc1cc([C@H](c3ccn4c(C(F)(F)F)nnc4c3C)C(C)(C)C(=O)O)ccc1C)CC1(CCOCC1)O2 (single isomer, unassigned) [Example 408, (*R)-2,2-dimethyl-3-(4-methyl-3-((8′-methyl-1′,1′-dioxido-2,3,5,6-tetrahydrospiro[pyran-4,4′-pyrido[2,3-b][1,4,5]oxathiazepin]-2′(3′H)-yl)methyl)phenyl)-3-(8-methyl-3-(trifluoromethyl)-[1,2,4]triazolo[4,3-a]pyridin-7-yl)propanoic Acid] | 1280 |  | 790 |
| Cc1ccc([C@@H](CC(=O)O)c2ccn3c(C(F)(F)F)nnc3c2C)nc1CN1CC2(COC2)Oc2ncccc2S1(=O)=O (single isomer, unassigned) [Example 494, (*S)-3-(6-((1′,1′-Dioxidospiro[oxetane-3,4′-pyrido[2,3-b][1,4,5]oxathiazepin]-2′(3′H)-yl)methyl)-5-methylpyridin-2-yl)-3-(8-methyl-3-(trifluoromethyl)-[1,2,4]triazolo[4,3-a]pyridin-7-yl)propanoic Acid] | < 1 | 577 |  |
| Cc1ccc([C@@H](CC(=O)O)c2ccc3c(nnn3CC3CC3)c2C)cc1CN1C[C@]2(C)CCCN2c2ncccc2S1(=O)=O (single isomer, unassigned) [Example 13, (*R)-3-(1-(Cyclopropylmethyl)-4-methyl-1H-benzo[d][1,2,3]triazol-5-yl)-3-(4-methyl-3-(((*S)-7a-methyl-5,5-dioxido-7a,8,9,10-tetrahydropyrido[2,3-f]pyrrolo[2,1-d][1,2,5]thiadiazepin-6(7H)-yl)methyl)phenyl)propanoic Acid] | 0.079 | 37.8 |  |
| Cc1ccc([C@@H](c2ccn3c(C(F)(F)F)nnc3c2C)C(C)(C)C(=O)O)cc1CN1C[C@]2(CCOC2)Oc2ncccc2S1(=O)=O (single isomer, unassigned) [Example 381, (*S)-3-(3-(((*S)-1′,1′-Dioxido-4,5-dihydro-2H-spiro[furan-3,4′-pyrido[2,3-b][1,4,5]oxathiazepin]-2′(3′H)-yl)methyl)-4-methylphenyl)-2,2-dimethyl-3-(8-methyl-3-(trifluoromethyl)-[1,2,4]triazolo[4,3-a]pyridin-7-yl)propanoic Acid] | 2820 | 427 |  |
| CC[C@@H]1CN(Cc2cc(C(CC(=O)O)c3ccn4c(C(F)F)nnc4c3C)ccc2C)S(=O)(=O)c2cccnc2O1 (mixture of isomers) [Example 463, 3-(3-(Difluoromethyl)-8-methyl-[1,2,4]triazolo[4,3-a]pyridin-7-yl)-3-(3-(((R)-4-ethyl-1,1-dioxido-3,4-dihydro-2H-pyrido[2,3-b][1,4,5]oxathiazepin-2-yl)methyl)-4-methylphenyl)propanoic Acid] | < 1 | 27.6 |  |
| Cc1ccc([C@@H](CC(=O)O)c2ccn3c(C)nnc3c2)cc1CN1C[C@H]2CCCN2c2ncccc2S1(=O)=O (single isomer, unassigned) [Example 164, (*R)-3-(3-(((R)-5,5-Dioxido-7a,8,9,10-tetrahydropyrido[2,3-f]pyrrolo[2,1-d][1,2,5]thiadiazepin-6(7H)-yl)methyl)-4-methylphenyl)-3-(3-methyl-[1,2,4]triazolo[4,3-a]pyridin-7-yl)propanoic Acid] | 2.3 | 11200 |  |
| CCn1nnc2c(C)c([C@H](CC(=O)O)c3ccc(C)c(CN4C[C@H]5CCCN5c5ncccc5S4(=O)=O)n3)ccc21 (single isomer, unassigned) [Example 297, (*S)-3-(6-(((R)-5,5-Dioxido-7a,8,9,10-tetrahydropyrido[2,3-f]pyrrolo[2,1-d][1,2,5]thiadiazepin-6(7H)-yl)methyl)-5-methylpyridin-2-yl)-3-(1-ethyl-4-methyl-1H-benzo[d][1,2,3]triazol-5-yl)propanoic Acid] | < 1 | 6 |  |
| Cc1ccc([C@@H](CC(=O)O)c2ccc3c(nnn3C3CC3)c2C)cc1CN1C[C@H]2CCCN2c2ncccc2S1(=O)=O (single isomer, unassigned) [Example 211, (*R)-3-(1-Cyclopropyl-4-methyl-1H-benzo[d][1,2,3]triazol-5-yl)-3-(3-(((R)-5,5-dioxido-7a,8,9,10-tetrahydropyrido[2,3-f]pyrrolo[2,1-d][1,2,5]thiadiazepin-6(7H)-yl)methyl)-4-methylphenyl)propanoic Acid] | 1.1 | 42 |  |
| CC[C@@H]1CN(Cc2nc([C@H](CC(=O)O)c3ccc4c(nnn4C4CC4)c3C)ccc2C)S(=O)(=O)c2cccnc2O1 (single isomer, unassigned) [Example 176, (*R)-3-(1-Cyclopropyl-4-methyl-1H-benzo[d][1,2,3]triazol-5-yl)-3-(6-(((R)-4-ethyl-1,1-dioxido-3,4-dihydro-2H-pyrido[2,3-b][1,4,5]oxathiazepin-2-yl)methyl)-5-methylpyridin-2-yl)propanoic Acid] | < 1 | 31 |  |
| Cc1ccc([C@H](CC(=O)O)c2ccn3c(C(F)(F)F)nnc3c2C)nc1CN1CC2(CC2)Oc2ncc(F)cc2S1(=O)=O (single isomer, unassigned) [Example 510, (*R)-3-(6-((8′-Fluoro-1′,1′-dioxidospiro[cyclopropane-1,4′-pyrido[2,3-b][1,4,5]oxathiazepin]-2′(3′H)-yl)methyl)-5-methylpyridin-2-yl)-3-(8-methyl-3-(trifluoromethyl)-[1,2,4]triazolo[4,3-a]pyridin-7-yl)propanoic Acid] | < 1 | 314 |  |
| Cc1ccc([C@@H](CC(=O)O)c2ccn3c(C(F)F)nnc3c2C)cc1CN1CC2(CCOCC2)Oc2ccc(F)cc2S1(=O)=O (single isomer, unassigned) [Example 525, (*R)-3-(3-(Difluoromethyl)-8-methyl-[1,2,4]triazolo[4,3-a]pyridin-7-yl)-3-(3-((8-fluoro-1,1-dioxido-2′,3′,5′,6′-tetrahydrospiro[benzo[b][1,4,5]oxathiazepine-4,4′-pyran]-2(3H)-yl)methyl)-4-methylphenyl)propanoic Acid] | < 1 | 38.8 |  |
